# Earlier results, collected in patent US20020155997A1 (priority 2000, published 2002).
# Tested on: bovine plasma
# Conditions: reference standard
substance,measurement,value
dextran sulfate,anticoagulant activity of the standard,25 units/mg
